In data set [1] the target is diazepam-insensitive [3H]Ro15-4513 binding sites (α4 and α6 GABAA receptors). Nature of the data set: [3H]Ro15-4513 binding to diazepam-insensitive sites, wild type mouse brain. The conditions noted are these: n=3.
Data set [2] has as its target diazepam-insensitive [3H]Ro15-4513 binding sites in α2(H101R) mice. Description: [3H]Ro15-4513 binding to diazepam-insensitive sites, α2(H101R) mouse brain. Conditions: n=3.
Data set [3] concerns the target diazepam-insensitive [3H]Ro15-4513 binding sites in α3(H126R) mice. Nature of the data set: [3H]Ro15-4513 binding to diazepam-insensitive sites, α3(H126R) mouse brain. Conditions: n=3.
Data set [4] has as its system GABAA receptors in hippocampal pyramidal cells from wild type mice. Nature of the data set: Patch-clamp GABA responses in cultured hippocampal pyramidal cells, wild type. It is filed as cell-based, mouse. How it is done:
(§1) FIGS. 2A-C. […] The holding potential in the patch-clamp analysis was −60 mV the chloride concentration symmetrical. GABA was applied for 5 sec. Hippocampal neurons from E16.5 embryos were cultured for 10-14 days.

Data set [5] relates to GABAA receptors in hippocampal pyramidal cells from α2(H101R) mice. Description: Patch-clamp GABA responses in cultured hippocampal pyramidal cells, α2(H101R). It is filed as cell-based, mouse. As for the experimental part: as §1
For orientation: In patch-clamp work, channel activity is measured electrically.

For data set [6], the system named is recombinant α2(H101R)β3γ2 receptors. Conditions: recombinant α2(H101R)β3γ2 in HEK-293 cells; cited from earlier work.
Data set [7] concerns the target T1, α2 subunits from α2(H101R) mice (Mus musculus, UniProt P22723+P26048, H129R).
T1 construct: from tissue; host or cells: brain of α2(H101R) knock-in mice
Nature of the data set: Diazepam affinity by [3H]Ro15-4513 binding after immunoprecipitation with α2 subunit-specific antiserum. The conditions noted are these: immunoprecipitated. From the text: (§2) To distinguish between the pharmacology of α2 and α3 receptor subtypes, two mouse lines were generated in which a point mutation was introduced into homologous positions of the α2 subunit gene [α2(H101R)]

Data set [8] concerns the target T2, α3 subunits from α3(H126R) mice (Mus musculus, UniProt P22723+P26049, H154R).
T2 construct: from tissue; host or cells: brain of α3(H126R) knock-in mice
Nature of the data set: Diazepam affinity by [3H]Ro15-4513 binding after immunoprecipitation with α3 subunit-specific antiserum. The conditions noted are these: immunoprecipitated.
From the text: as §2

The subject of data set [9] is wild type, α2(H101R) and α3(H126R) mice. Nature of the data set: Locomotor activity. In kind it is in vivo, mouse. Conditions: diazepam 3, 10, 30 mg/kg p.o., 30 min prior. How it is done: (§3) V, vehicle. […] 31:733. Locomotor activity was automatically recorded for 30 min.
Data set [10] shares this test system. Description: Pentylenetetrazole test. It is filed as in vivo, mouse. Conditions: pentylenetetrazole 120 mg/kg ip, diazepam 3, 10, 30 mg/kg p.o. How it is done:
as §3
Following pentylenetetrazole treatment (120 mg/kg ip), occurrence and/or latency to tonic seizures was recorded for a maximum of 10 minutes in wild type and mutant mice. […].

The test system is the same in data set [11]. Description: Light/dark choice test. In kind it is in vivo, mouse. The conditions noted are these: for time in the lit area: sodium phenobarbital 15 mg/kg s.c., n=6-8. How it is done:
(§4) FIG. 4A: Light/dark choice test. […] FIGS. 4B-C: Elevated plus-maze. […] FIG. 4D: Light/dark choice test. […] FIGS. 4E-F: Elevated plus-maze. […] Results are given as means ±S.E.M.+, P<0.05;++, P<0.01;+++P<0.001 (Dunnett's or Fisher's pair-wise post-hoc comparisons or Fisher's exact tests). […] The light-dark choice test was carried out as described infra with an illumination of 500 lux. […] The elevated plus-maze was performed as described infra under an indirect dim light illumination (<10 lux).
In a chamber containing an interconnected dark and lit (500 lux) box, the behavior of wild-type and mutant mice was tested for 5 min following the first entry into the dark compartment. […] The time spent in the lit box was recorded.
(§5) Female wild-type and mutant mice were raised in the test rooms and behaviorally tested during the dark period of the 1 2-hr light/dark cycle.

The test system is the same in data set [12]. Description: Elevated plus-maze. The conditions noted are these: diazepam 2 mg/kg p.o. It is filed as in vivo, mouse. As for the experimental part:
as §4
Mice were placed on an elevated crossbar with two walled and two open arms under indirect dim illumination. […] The time spent on the open arms and the number of open arm entries was recorded for 5 minutes.
as §5

Data set [13] has as its system wild type and α1-GABAA receptor (H101R) mice. Nature of the data set: Withdrawal after chronic diazepam and flumazenil administration. The conditions noted are these: chronic diazepam then flumazenil.

“Also recorded” adds a separate entry of the source.

T1 sequence (P26048 29-451 H129R): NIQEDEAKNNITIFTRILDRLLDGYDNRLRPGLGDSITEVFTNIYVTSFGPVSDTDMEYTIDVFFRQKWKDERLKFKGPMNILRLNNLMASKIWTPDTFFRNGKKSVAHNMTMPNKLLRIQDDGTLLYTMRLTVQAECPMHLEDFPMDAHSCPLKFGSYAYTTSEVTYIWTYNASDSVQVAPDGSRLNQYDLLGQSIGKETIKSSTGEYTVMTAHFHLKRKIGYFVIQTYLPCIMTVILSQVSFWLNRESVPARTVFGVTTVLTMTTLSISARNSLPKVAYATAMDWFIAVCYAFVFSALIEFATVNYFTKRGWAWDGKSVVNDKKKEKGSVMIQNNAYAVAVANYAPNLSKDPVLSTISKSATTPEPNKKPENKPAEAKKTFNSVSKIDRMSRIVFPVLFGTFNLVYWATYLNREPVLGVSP
T1 sequence (P22723 39-474): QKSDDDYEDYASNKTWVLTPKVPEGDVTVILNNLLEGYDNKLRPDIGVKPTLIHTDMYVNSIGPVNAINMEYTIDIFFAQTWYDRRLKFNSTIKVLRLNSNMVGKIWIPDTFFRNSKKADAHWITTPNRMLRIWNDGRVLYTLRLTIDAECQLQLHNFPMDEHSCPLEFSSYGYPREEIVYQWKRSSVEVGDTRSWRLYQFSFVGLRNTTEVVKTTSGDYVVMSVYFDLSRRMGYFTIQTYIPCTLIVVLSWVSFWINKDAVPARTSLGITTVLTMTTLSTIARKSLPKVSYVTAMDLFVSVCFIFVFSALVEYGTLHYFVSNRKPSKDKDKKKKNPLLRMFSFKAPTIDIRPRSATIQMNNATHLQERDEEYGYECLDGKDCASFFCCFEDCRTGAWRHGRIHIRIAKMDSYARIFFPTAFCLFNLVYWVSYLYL
T1 sequence (P63080 26-473 partner): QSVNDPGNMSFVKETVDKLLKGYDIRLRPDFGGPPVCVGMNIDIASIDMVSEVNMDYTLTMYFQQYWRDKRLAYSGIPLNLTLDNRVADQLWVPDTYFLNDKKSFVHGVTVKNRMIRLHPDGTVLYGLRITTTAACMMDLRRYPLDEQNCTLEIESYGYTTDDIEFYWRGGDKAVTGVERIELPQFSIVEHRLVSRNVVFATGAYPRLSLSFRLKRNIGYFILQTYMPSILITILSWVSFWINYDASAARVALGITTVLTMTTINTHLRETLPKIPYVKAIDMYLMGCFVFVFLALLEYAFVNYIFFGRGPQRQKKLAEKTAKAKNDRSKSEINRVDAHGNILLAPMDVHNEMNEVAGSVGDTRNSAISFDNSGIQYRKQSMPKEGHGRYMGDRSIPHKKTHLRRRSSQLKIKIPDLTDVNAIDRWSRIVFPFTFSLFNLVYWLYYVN
T2 sequence (P26049 29-492 H154R): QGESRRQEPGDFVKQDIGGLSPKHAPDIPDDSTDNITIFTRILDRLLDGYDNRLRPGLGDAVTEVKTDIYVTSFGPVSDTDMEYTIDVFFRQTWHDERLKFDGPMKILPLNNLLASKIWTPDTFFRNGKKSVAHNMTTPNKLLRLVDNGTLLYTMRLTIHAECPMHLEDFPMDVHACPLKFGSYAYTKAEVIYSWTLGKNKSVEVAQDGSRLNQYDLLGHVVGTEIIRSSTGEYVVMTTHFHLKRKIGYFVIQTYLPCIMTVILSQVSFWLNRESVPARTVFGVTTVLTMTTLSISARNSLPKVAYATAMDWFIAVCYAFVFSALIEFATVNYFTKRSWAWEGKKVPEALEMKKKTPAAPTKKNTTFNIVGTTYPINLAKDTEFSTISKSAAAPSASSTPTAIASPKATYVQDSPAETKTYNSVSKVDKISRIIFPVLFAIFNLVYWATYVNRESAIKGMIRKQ
T2 sequence (P22723 39-474): as the sequence (P22723 39-474) above
T2 sequence (P63080 26-473 partner): as the sequence (P63080 26-473 partner) above

Take `CCOC(=O)c1ncn2c1CN(C)C(=O)c1cc(N=[N+]=[N-])ccc1-2` [Ro15-4513]: the Kd (in general, the concentration at which binding is half-saturated) amounted to 4.3 ± 0.8 nM in data set [1] (α2 wild type controls), 4.9 ± 2.1 nM in data set [1] (α3 wild type controls), 8 ± 1.3 nM in data set [2] and 6.5 ± 1.6 nM in data set [3]. Further, the “modulation of GABA response by Ro15-4513 (inverse agonistic action)” value in data set [4] (Ro15-4513 1μM, n=13) is on record as −39±5.2%. For the same compound, the “modulation of GABA response by Ro15-4513 (agonistic response)” value in data set [5] (Ro15-4513 1μM, n=23) came to 11.7±7.5%. Also, in data set [6], the “efficacy of Ro15-4513” value is “from inverse agonism to agonism”.

With `CN1C(=O)CN=C(c2ccccc2)c2cc(Cl)ccc21` [diazepam], the “decrease in the affinity for diazepam” value in [7] and in [8] was “more than 1,000 fold” each time. Besides, the “potentiation of GABA response by diazepam” value is 48.1±7.9% in [4] (diazepam 1μM, GABA 3 μM, n=18) and 17.6±4.5% in data set [5] (diazepam 1μM, GABA 3 μM, n=29). Also, in data set [9], the “locomotor activity (sedative action)” value is “Dose-dependent inhibition of locomotor activity”. In addition, the “percentage of mice developing tonic convulsions (anticonvulsant action)” value is “Dose-dependent decrease of the percentage of mice developing tonic convulsions” in [10] (wild type mice), “not impaired; also recorded: Dose-dependent decrease of the percentage of mice developing tonic convulsions” in [10] (α2(H101R) mice) and “not impaired; also recorded: Dose-dependent decrease of the percentage of mice developing tonic convulsions” in data set [10] (α3(H126R) mice). Besides, the “time spent in the lit area” value in [11] (wild type mice, diazepam 0.5, 1, 2 mg/kg p.o.) was “dose-dependently increased the time spent in the lit area”; in [11] (α2(H101R) mice, diazepam up to 2 mg/kg p.o.), “did not increase the time spent in the lit area”; in [11] (α3(H126R) mice, diazepam 0.5, 1, 2 mg/kg p.o.) it was “Dose-dependent increase in the time spent in the lit area”. The “entries on the open arms” value is recorded as “increased” in data set [12] (wild type mice), “failed to increase” in data set [12] (α2(H101R) mice) and “increased” in [12] (α3(H126R) mice). Besides, the “percentage of time spent on the open arms” value in data set [12] (wild type mice) is reported as “increased”; in data set [12] (α2(H101R) mice) it was “failed to increase”; in data set [12] (α3(H126R) mice), “increased”. Moreover, the “withdrawal symptoms (locomotor activity)” value is recorded as “exhibited withdrawal symptoms” in data set [13] (wild type mice) and “greatly reduced” in data set [13] (α1-GABAA receptor (H101R) mice).

`CCC1(c2ccccc2)C(=O)NC(=O)NC1=O` [phenobarbital, Sodium phenobarbital]: the “time in the lit area” value turned out to be 111.75 s in data set [11] (wild type mice) and 110.9 s in data set [11] (α2(H101R) mice).

Values taken from patent US20020052365A1, “Selective anxiolytic therapeutic agents” (priority 2000, published 2002).
